Laboratory results reported in publication PMC8632988, “Inhibition of SYK and cSrc kinases can protect bone and cartilage in preclinical models of osteoarthritis and rheumatoid arthritis” (Scientific Reports, 2021).

Columns and labels:
[1] = biological target: T1, HIPK1 (Homo sapiens, UniProt Q86Z02); experiment: Kinase selectivity profile assay; type: biochemical; conditions: 500 nM; relative to DMSO; read-out: Residual enzymatic activity
T1 construct: purchased Reaction Biology Corporation
Summary of the method: (§1)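 Radiometric kinase assay run by a standard protocol. Unbound phosphate was removed by washing filters in phosphoric acid, and product radioactivity gave percent remaining kinase activity versus DMSO vehicle reactions. Run in duplicate.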

[2] = biological target: T2, PKN1/PRK1 (Homo sapiens, UniProt Q16512); experiment: Kinase selectivity profile assay; type: biochemical; conditions: 500 nM; relative to DMSO; read-out: Residual enzymatic activity
T2 construct: purchased Reaction Biology Corporation
Summary of the method: as §1

[3] = biological target: T3, CAMK1b (Homo sapiens, UniProt Q6P2M8); experiment: Kinase selectivity profile assay; type: biochemical; conditions: 500 nM; relative to DMSO; read-out: Residual enzymatic activity
T3 construct: purchased Reaction Biology Corporation
Summary of the method: as §1

[4] = biological target: T4, TGFBR2 (Homo sapiens, UniProt P37173); experiment: Kinase selectivity profile assay; type: biochemical; conditions: 500 nM; relative to DMSO; read-out: Residual enzymatic activity
T4 construct: purchased Reaction Biology Corporation
T4 sequence (P37173 23-567): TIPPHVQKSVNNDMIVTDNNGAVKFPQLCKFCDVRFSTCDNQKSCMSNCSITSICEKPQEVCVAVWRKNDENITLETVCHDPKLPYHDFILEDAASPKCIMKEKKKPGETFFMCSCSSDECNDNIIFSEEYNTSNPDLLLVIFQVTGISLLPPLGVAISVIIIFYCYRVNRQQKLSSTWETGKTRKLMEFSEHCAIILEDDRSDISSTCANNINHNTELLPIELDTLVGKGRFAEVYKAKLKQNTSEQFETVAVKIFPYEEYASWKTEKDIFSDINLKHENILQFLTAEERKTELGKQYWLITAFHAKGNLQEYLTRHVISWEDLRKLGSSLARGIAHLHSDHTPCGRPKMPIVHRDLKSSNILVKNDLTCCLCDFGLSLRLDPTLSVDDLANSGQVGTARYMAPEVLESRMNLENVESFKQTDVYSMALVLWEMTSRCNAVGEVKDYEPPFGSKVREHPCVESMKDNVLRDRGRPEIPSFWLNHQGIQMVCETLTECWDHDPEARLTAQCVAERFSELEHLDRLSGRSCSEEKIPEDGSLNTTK
Summary of the method: as §1

[5] = biological target: T5, DYRK2 (Homo sapiens, UniProt Q92630); experiment: Kinase selectivity profile assay; type: biochemical; conditions: 500 nM; relative to DMSO; read-out: Residual enzymatic activity
T5 construct: purchased Reaction Biology Corporation
Summary of the method: as §1

[6] = biological target: T6, STK16 (Homo sapiens, UniProt O75716); experiment: Kinase selectivity profile assay; type: biochemical; conditions: 500 nM; relative to DMSO; read-out: Residual enzymatic activity
T6 construct: purchased Reaction Biology Corporation
T6 sequence (O75716 whole entry): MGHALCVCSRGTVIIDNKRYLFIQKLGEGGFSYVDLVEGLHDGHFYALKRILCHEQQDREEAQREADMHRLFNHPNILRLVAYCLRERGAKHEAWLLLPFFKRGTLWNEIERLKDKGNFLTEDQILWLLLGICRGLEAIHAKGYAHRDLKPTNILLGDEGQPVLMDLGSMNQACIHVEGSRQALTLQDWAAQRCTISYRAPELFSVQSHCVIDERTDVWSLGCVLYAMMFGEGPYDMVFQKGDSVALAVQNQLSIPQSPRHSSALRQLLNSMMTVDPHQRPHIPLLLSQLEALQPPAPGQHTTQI
Summary of the method: as §1

[7] = biological target: T7, PLK4/SAK (Homo sapiens, UniProt O00444); experiment: Kinase selectivity profile assay; type: biochemical; conditions: 500 nM; relative to DMSO; read-out: Residual enzymatic activity
T7 construct: purchased Reaction Biology Corporation
T7 sequence (O00444 whole entry): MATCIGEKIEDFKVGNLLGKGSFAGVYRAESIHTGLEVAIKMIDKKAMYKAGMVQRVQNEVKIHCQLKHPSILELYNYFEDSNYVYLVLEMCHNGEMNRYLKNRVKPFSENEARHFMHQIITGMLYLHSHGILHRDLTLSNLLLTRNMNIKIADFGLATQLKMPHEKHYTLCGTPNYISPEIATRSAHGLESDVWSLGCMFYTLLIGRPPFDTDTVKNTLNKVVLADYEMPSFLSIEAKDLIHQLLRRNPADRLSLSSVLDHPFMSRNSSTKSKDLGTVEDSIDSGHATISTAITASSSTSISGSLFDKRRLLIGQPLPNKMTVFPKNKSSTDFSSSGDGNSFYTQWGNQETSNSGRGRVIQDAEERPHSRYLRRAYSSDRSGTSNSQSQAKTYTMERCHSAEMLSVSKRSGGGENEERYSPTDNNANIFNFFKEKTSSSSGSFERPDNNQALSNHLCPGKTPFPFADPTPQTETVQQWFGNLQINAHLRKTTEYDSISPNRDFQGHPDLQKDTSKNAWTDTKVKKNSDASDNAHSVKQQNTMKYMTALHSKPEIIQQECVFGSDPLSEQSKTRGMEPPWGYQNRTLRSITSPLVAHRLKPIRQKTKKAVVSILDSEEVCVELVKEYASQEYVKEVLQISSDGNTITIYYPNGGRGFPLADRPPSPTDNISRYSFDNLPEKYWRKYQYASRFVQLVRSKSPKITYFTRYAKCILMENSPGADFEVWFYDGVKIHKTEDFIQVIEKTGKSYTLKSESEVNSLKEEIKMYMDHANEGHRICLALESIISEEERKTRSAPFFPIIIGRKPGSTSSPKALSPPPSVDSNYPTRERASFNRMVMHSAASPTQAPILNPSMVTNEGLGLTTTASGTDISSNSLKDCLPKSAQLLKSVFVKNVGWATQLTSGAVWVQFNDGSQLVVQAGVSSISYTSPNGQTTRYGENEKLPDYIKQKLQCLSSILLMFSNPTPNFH
Summary of the method: as §1

[8] = biological target: T8, TTBK1 (Homo sapiens, UniProt Q5TCY1); experiment: Kinase selectivity profile assay; type: biochemical; conditions: 500 nM; relative to DMSO; read-out: Residual enzymatic activity
T8 construct: purchased Reaction Biology Corporation
Summary of the method: as §1

[9] = biological target: T9, MEK1 (Homo sapiens, UniProt Q02750); experiment: Kinase selectivity profile assay; type: biochemical; conditions: 500 nM, relative to DMSO; for remaining activity at 0.5 µM: read-out: Residual enzymatic activity
T9 construct: purchased Reaction Biology Corporation
T9 sequence (Q02750 whole entry): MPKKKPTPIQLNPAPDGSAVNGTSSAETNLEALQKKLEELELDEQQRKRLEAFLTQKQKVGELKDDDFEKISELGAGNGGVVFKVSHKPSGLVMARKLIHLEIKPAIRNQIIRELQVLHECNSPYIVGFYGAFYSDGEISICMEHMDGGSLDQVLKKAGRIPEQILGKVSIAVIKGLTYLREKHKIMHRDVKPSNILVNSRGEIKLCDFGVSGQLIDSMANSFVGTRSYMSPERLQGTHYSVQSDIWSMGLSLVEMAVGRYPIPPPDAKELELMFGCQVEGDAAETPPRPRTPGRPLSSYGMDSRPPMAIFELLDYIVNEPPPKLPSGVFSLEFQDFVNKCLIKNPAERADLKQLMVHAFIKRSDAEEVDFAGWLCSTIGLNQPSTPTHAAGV
Summary of the method: as §1

[10] = biological target: T10, GRK6 (Homo sapiens, UniProt P43250); experiment: Kinase selectivity profile assay; type: biochemical; conditions: 500 nM; relative to DMSO; read-out: Residual enzymatic activity
T10 construct: purchased Reaction Biology Corporation
Summary of the method: as §1

[11] = biological target: T11, BLK (Homo sapiens, UniProt P51451); experiment: Kinase selectivity profile assay; type: biochemical; conditions: for remaining activity at 0.5 µM: 500 nM, relative to DMSO, read-out: Residual enzymatic activity
T11 construct: purchased Reaction Biology Corporation (assay service)
T11 sequence (P51451 whole entry): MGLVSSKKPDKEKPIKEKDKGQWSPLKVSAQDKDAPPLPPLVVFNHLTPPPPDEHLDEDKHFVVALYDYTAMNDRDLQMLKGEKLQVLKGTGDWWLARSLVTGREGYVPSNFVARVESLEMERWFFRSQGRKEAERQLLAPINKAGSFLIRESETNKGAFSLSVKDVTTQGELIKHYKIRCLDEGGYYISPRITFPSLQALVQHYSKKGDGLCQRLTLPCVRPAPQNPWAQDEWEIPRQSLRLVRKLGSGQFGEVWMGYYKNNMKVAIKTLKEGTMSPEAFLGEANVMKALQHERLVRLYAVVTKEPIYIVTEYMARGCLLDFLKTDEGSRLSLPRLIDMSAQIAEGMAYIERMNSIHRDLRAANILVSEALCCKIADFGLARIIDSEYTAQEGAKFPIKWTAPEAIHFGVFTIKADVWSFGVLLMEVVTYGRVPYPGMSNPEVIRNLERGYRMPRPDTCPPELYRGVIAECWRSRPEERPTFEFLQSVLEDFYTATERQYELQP
Summary of the method: as §1

[12] = biological target: T12, PHKg2 (Homo sapiens, UniProt P15735); experiment: Kinase selectivity profile assay; type: biochemical; conditions: 500 nM; relative to DMSO; read-out: Residual enzymatic activity
T12 construct: purchased Reaction Biology Corporation
Summary of the method: as §1

[13] = biological target: T13, SGK1 (Homo sapiens, UniProt O00141); experiment: Kinase selectivity profile assay; type: biochemical; conditions: 500 nM; relative to DMSO; read-out: Residual enzymatic activity
T13 construct: purchased Reaction Biology Corporation
T13 sequence (O00141 whole entry): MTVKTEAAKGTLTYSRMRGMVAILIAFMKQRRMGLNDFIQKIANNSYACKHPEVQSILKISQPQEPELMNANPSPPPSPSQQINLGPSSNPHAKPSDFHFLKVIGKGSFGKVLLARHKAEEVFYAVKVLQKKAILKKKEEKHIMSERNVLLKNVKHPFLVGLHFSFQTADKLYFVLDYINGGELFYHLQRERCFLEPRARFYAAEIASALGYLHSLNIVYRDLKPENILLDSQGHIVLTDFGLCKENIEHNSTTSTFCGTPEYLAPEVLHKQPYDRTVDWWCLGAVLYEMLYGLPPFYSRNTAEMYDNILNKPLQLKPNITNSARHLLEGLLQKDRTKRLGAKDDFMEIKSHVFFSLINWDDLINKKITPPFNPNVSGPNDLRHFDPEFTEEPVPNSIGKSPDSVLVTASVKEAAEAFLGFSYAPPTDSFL
Summary of the method: as §1

[14] = biological target: T14, PKCeta (Homo sapiens, UniProt P24723); experiment: Kinase selectivity profile assay; type: biochemical; conditions: 500 nM; relative to DMSO; read-out: Residual enzymatic activity
T14 construct: purchased Reaction Biology Corporation
Summary of the method: as §1

[15] = biological target: T15, WEE1 (Homo sapiens, UniProt P30291); experiment: Kinase selectivity profile assay; type: biochemical; conditions: 500 nM; relative to DMSO; read-out: Residual enzymatic activity
T15 construct: purchased Reaction Biology Corporation
T15 sequence (P30291 whole entry): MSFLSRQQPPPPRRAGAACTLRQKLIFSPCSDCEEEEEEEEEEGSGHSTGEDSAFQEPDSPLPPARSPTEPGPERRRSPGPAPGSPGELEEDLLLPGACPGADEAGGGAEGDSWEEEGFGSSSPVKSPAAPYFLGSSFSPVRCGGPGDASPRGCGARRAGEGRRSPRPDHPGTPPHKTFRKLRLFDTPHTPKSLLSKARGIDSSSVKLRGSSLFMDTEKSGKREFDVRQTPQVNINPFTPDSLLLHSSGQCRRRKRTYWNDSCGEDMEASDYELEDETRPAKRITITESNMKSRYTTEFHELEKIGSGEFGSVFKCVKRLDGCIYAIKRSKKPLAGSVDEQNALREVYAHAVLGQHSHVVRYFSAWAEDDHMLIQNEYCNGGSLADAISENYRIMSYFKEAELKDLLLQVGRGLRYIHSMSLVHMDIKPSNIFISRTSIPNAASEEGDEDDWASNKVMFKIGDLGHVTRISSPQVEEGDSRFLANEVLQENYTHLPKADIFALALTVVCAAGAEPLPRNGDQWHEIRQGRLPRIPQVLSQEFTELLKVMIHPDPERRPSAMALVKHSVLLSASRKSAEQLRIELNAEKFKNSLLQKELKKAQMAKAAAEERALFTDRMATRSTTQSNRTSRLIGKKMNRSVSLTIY
Summary of the method: as §1

[16] = biological target: T16, ARAF (Homo sapiens, UniProt P10398); experiment: Kinase selectivity profile assay; type: biochemical; conditions: 500 nM; relative to DMSO; read-out: Residual enzymatic activity
T16 construct: purchased Reaction Biology Corporation
Summary of the method: as §1

[17] = biological target: T17, SGK3/SGKL (Homo sapiens, UniProt Q96BR1); experiment: Kinase selectivity profile assay; type: biochemical; conditions: 500 nM; relative to DMSO; read-out: Residual enzymatic activity
T17 construct: purchased Reaction Biology Corporation
Summary of the method: as §1

[18] = biological target: T18, ALK (Homo sapiens, UniProt Q9UM73); experiment: Kinase selectivity profile assay; type: biochemical; conditions: 500 nM; relative to DMSO; read-out: Residual enzymatic activity
T18 construct: purchased Reaction Biology Corporation
Summary of the method: as §1

[19] = test system: 341 kinases; experiment: Kinase selectivity profile, whole panel; type: biochemical, human; conditions: 500 nM
Procedure: The activity of MT-SYK-03 against cSrc kinase and selectivity profile towards other 341 kinases was determined at Reaction Biology Corporation (Malvern, PA, USA) using the standard kinase assay protocol. […]; unbound phosphate was removed by extensive washing of filters in phosphoric acid. Kinase activity data was expressed as the percent remaining kinase activity in test samples compared to vehicle (dimethyl sulfoxide) reactions based on the radioactivity of reaction products (see Table S2). Experiment was replicated twice.

T1 sequence (Q86Z02 whole entry): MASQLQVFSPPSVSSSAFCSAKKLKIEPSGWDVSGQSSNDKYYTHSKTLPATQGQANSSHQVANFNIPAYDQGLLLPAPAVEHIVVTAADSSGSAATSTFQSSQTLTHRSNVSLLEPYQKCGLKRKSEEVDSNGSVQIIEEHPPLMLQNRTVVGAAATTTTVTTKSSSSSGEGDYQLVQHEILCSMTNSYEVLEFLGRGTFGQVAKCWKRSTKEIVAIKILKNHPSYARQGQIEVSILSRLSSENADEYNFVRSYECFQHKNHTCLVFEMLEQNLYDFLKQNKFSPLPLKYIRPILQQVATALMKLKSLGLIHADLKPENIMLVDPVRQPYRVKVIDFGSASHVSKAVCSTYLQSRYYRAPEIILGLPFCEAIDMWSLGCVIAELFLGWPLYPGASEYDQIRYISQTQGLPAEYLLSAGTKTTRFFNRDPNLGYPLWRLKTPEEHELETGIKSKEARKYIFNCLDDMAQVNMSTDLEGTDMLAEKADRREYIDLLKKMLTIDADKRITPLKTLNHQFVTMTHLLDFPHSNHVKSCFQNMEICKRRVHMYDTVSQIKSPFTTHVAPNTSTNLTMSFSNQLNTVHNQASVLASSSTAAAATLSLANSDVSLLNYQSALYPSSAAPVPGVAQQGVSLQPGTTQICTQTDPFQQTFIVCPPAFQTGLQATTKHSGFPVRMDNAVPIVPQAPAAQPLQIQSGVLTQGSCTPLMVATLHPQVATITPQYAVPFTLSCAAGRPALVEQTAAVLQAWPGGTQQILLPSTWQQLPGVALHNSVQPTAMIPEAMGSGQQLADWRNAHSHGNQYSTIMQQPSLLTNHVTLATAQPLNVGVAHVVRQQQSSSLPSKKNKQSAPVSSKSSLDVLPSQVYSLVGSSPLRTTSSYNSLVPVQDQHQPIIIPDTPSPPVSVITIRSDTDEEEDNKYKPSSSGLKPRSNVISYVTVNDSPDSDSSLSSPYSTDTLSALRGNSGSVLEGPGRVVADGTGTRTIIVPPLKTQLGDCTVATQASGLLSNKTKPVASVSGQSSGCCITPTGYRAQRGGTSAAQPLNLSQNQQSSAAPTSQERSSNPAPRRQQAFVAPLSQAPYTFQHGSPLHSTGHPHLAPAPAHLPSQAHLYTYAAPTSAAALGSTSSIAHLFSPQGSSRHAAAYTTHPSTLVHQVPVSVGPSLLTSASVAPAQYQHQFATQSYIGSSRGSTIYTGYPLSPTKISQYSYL

Row | Compound | remaining activity at 0.5 µM [1] [%] | remaining activity at 0.5 µM [2] [%] | remaining activity at 0.5 µM [3] [%] | remaining activity at 0.5 µM [4] [%] | remaining activity at 0.5 µM [5] [%] | remaining activity at 0.5 µM [6] [%] | remaining activity at 0.5 µM [7] [%] | remaining activity at 0.5 µM [8] [%] | remaining activity at 0.5 µM [9] [%] | remaining activity at 0.5 µM [10] [%] | remaining activity at 0.5 µM [11] [%] | remaining activity at 0.5 µM [12] [%] | remaining activity at 0.5 µM [13] [%] | remaining activity at 0.5 µM [14] [%] | remaining activity at 0.5 µM [15] [%] | remaining activity at 0.5 µM [16] [%] | remaining activity at 0.5 µM [17] [%] | remaining activity at 0.5 µM [18] [%] | Number of kinases inhibited by more than 50% [19] [kinases] | Number of kinases inhibited by more than 80% [19] [kinases] | also measured
1 | COc1cc(Nc2ncnc(Nc3cc4c(cn3)NC(=O)C(C)(C)O4)n2)cc(OC)c1OC [MT-SYK-03] | 97.4 | 104 | 106 | 116 | 104 | 50.6 | 77.8 | 108 | 107 | 100 | 19.8 | 102 | 108 | 109 | 108 | 59.7 | 103 | 96.5 | 34 | 13 | Residual enzymatic activity [9]: did not inhibit any; IC50 ([11]; 10-dose mode, threefold serial dilution from 10 μM): 9.6 nM; inhibition at 0.5 µM ([11]; read-out: Inhibition at 500 nM): > 90%; Number of kinases inhibited by more than 90% [19]: five
2 | COc1cc(Nc2ncc(F)c(Nc3ccc4c(n3)NC(=O)C(C)(C)O4)n2)cc(OC)c1OC [R406, reference compound] | 90.8 | 62.6 | 108 | 97.1 | 64.1 | 6.3 | 17.2 | 98.5 | 87.2 | 92.7 | 16.7 | 93.4 | 109 | 96.6 | 105 | 41 | 100 | 41.2 | 104 | 50 | Number of kinases inhibited by more than 90% [19]: 26 kinases
